Source: patent publication US4546096A, “Anticholinergic glucuronides and antiperspirant use thereof” (Repligen Corporation, priority 1984, dated 1985)
One block for each compound: values may come before it.

Tests used:
[1] = biological target: T1, bovine liver β-glucuronidase (Bos taurus, UniProt A3KMY8); assay: Hydrolysis of glucuronides by bovine liver β-glucuronidase; assay type: biochemical; settings: bovine liver enzyme, pH 5.0; initial rate; enzyme diluted so that PGA rates are equivalent
T1 sequence (A3KMY8 24-652): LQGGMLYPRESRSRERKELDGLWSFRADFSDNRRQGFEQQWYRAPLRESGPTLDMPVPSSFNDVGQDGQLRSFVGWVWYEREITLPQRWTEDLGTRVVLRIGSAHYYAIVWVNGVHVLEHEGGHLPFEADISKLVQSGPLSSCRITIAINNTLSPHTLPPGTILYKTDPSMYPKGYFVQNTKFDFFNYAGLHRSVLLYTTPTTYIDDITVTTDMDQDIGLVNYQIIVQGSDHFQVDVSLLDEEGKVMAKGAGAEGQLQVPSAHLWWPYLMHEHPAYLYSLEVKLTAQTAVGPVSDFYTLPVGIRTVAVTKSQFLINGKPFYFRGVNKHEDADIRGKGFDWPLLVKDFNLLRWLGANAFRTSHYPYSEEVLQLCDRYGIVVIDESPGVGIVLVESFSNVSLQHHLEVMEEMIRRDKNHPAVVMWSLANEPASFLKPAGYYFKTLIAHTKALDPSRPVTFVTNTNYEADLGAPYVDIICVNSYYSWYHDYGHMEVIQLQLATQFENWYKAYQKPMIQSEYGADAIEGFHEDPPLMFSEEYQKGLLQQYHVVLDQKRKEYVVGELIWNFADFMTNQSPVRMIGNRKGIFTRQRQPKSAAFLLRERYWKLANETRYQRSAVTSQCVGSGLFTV

E. coli β-glucuronidase = E. coli β-glucuronidase (Escherichia coli, UniProt P05804); assay: Hydrolysis of glucuronides by E. coli β-glucuronidase; assay type: biochemical; settings: pH 6.8; for Hydrolysis of Glucuronides: E. coli enzyme, initial rate, enzyme diluted so that PGA rates are equivalent
Sequence of E. coli β-glucuronidase (P05804 whole entry): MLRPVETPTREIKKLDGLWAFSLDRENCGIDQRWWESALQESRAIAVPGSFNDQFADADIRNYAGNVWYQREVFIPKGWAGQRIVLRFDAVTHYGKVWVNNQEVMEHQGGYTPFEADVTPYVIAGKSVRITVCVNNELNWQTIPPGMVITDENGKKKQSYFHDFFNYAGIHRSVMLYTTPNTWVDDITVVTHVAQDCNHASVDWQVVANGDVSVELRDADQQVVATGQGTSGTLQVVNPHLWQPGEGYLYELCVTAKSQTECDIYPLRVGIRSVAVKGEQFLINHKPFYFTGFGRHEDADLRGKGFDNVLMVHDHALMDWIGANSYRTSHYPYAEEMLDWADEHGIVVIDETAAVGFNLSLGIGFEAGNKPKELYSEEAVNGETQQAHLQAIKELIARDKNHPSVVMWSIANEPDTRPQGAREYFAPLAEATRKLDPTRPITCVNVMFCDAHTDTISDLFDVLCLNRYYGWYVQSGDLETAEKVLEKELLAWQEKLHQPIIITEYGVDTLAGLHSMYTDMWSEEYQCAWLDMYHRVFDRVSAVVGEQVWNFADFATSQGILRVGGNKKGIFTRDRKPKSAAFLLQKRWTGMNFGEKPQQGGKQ

rabbit eye pupil = assay: Mydriasis assay (rabbit eye pupil diameter); assay type: in vivo; settings: for Change in Pupil Diameter as a function of time: error ± 0.5 mm; for mydriatic potency compared to the parent drugs: compared to parent drugs tropicamide and scopolamine
Experimental: The rabbit eye pupil diameter was measured with a clear plastic ruler after exposing the eye to 50 W light at a distance of 6 in. Exposure to light contracts the pupil to approximately 3 mm diameter.
The addition of the compounds to be tested is done in a maximum volume of 150 μl, in 50 mM NaPO4, pH 6.8, 100 mM NaCl. The sample was applied in the upper corner of the eye and was allowed to completely cover the cornea after each addition. Pupil dilation was measured at 3 separate intervals following the procedure outlined above. Buffer controls were run in one eye and the anticholinergic in the other.

[2] = biological target: T2, human sweat β-glucuronidase (Homo sapiens, UniProt P08236); assay: Hydrolysis of model glucuronides by human sweat glucuronidase; assay type: biochemical; settings: for Hydrolysis of Glucuronides: dialyzed human sweat, initial rate, enzyme diluted so that PGA rates are equivalent
T2 sequence (P08236 23-651): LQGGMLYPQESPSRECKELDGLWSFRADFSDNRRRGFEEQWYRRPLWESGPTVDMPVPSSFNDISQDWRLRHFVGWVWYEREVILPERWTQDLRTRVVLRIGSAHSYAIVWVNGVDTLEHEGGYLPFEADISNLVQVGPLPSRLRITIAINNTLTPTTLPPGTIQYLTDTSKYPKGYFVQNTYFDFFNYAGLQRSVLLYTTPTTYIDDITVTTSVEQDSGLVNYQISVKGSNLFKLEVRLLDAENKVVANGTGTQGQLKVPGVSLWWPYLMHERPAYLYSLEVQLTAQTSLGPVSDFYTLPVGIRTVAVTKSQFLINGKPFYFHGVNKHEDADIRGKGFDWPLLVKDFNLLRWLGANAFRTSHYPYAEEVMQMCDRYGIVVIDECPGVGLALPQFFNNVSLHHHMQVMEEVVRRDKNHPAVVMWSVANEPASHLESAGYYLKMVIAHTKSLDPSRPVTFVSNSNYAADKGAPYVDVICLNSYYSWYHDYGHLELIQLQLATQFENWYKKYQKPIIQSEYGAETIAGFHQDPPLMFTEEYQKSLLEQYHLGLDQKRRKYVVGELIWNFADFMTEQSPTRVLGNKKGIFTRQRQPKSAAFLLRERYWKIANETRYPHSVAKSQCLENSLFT
Experimental: Sweat was obtained from human volunteers by collection from the axilla during high temperature (>41° C.) in a sauna. The sweat was clarified by centrifugation at 20,000 g for 30 min. This clarified sweat was then either utilized directly in hydrolysis studies or dialyzed against 100 mM NaCl, 50 mM sodium acetate, pH 5.0 prior to use. […] Most of the data presented herein was generated with dialyzed preparations.
β-glucuronidase activity was assayed in the sweat by hydrolysis of phenolphthalein glucuronide. Briefly, this assay was carried out as follows: to an aliquot of undialyzed sweat was added an equal volume of buffer comprising 100 mM NaCl, 100 mM sodium acetate, pH 5.0 (this step was unnecessary when assaying dialyzed sweat) followed by 10 μl of a 100 mg/ml phenolphthalein glucuronide solution (Sigma Chemical, St. Louis, Mo.). The reaction mixture was then incubated at 37° C. After 30 min an aliquot of the reaction mixture was added to a five-fold excess of a 0.2 M glycine buffer, pH 10.4 and the absorbance wa determined at 540 nm. The activity was determined by comparison to a known amount of E. coli β-glucuronidase (Sigma, Type VII) run under standard conditions.
A variety of glucuronides were synthesized and tested for their ability to be hydrolyzed by human sweat glucuronidase. […] These hydrolysis reactions were all carried out under similar conditions, and the extent of hydrolysis was determined at the various time points by HPLC analysis of the reaction mixture.
Generally, dialyzed preparations of sweat were used for the reasons discussed earlier. […] A typical experiment was done by bringing the enzyme solution (50-100 U/ml) to 0.01 to 0.05% in the glucuronide to be tested. A zero time aliquot was withdrawn and stored frozen; the remaining reaction mixture was incubated at 37° C. Aliquots were taken at various time points for rate determinations. These aliquots were stored at -20° C. until analysis by HPLC.
High pressure liquid chromatography of the aliquots drawn from the hydrolysis reactions allowed the separation of the aglycon from the glucuronide in all cases. The nmoles released at any given time were calculated from the absorption at 254 nm and the known extinction coefficient of the compound. Rates are given as initial rates which are determined by plotting nmoles aglycon vs. time.

[3] = Solubility of aglycon in the enzymatic reaction mixture; assay type: physicochemical; settings: aqueous tris hydrochloride reaction mixture
Experimental: Due to the low solubility of this compound, excess solid material is added to the reaction mixture so that a saturated solution of aglycon is maintained throughout the reaction. The glucuronide is isolated by HPLC with the reversed phase system described in Example 2. It is characterized by hydrolysis with excess E. coli β-glucuronidase (1000 U/ml, pH 6.8) (Sigma, Type […]) for 1 hr at 37° C. which quantitatively releases the aglycon as assayed by HPLC.
The glucuronide of scopolamine p-hydroxybenzoate is synthesized with uridine 5'-diphosphoglucuronic acid transferase by first removing all or substantially all of the esterase activity from liver microsomes. These esterases are removed since they will hydrolyze the aglycon. This operation can be done by washing the liver microsomes in a suitable buffer, as described herein, or by other equivalent washing means known to persons in this art. Advantageously, an esterase inhibitor can be used to supplement the washing of the microsomes. For example, a competitive inhibitor of the esterases such as lysine ethyl ester, and the like, or a suicide substrate such as phenylmethylsulfonyl fluoride, and the like, can be used. […] The glucuronide is characterized by hydrolysis with excess E. coli β-glucuronidase (100 U/ml, pH 6.8) (Sigma, Type VII) for 1 hr at 37° C. which quantitatively releases the aglycon as assayed by HPLC.

[4] = levels 100-fold greater than required to effect a strong mydriatic response with the aglycon

SMILES: CCN(Cc1ccncc1)C(=O)C(CO[C@@H]1O[C@H](C(=O)O)[C@@H](O)[C@H](O)[C@H]1O)c1ccccc1 (stereo partly drawn) [Tropicamide glucuronide, tropicamide O-β-D-glucuronide]
Hydrolysis of Glucuronides [1]: 24 nmoles/hour/100 units
Hydrolysis of Glucuronides (E. coli β-glucuronidase): > 150 nmoles/hour/100 units
Hydrolysis by E. coli enzyme (in words) (E. coli β-glucuronidase): rapidly hydrolyzes
Change in Pupil Diameter as a function of time (rabbit eye pupil; 600 ug applied, in 30 min): 0 mm
Hydrolysis of Glucuronides ([2]; pH 5.0): 1.6 nmoles/hour/100 units
Hydrolysis by human sweat enzyme (in words) ([2]; pH 5.0): Trace amounts
Hydrolysis by human sweat enzyme (in words) ([2]; pH 6.8): no hydrolysis

SMILES: CCN(Cc1ccncc1)C(=O)C(COC(=O)c1ccc(O)cc1)c1ccccc1 (stereo not shown) [Tropicamide p-hydroxybenzoate, tropicamide p-hydroxybenzoate]
solubility [3]: low
mydriatic response (in words) (rabbit eye pupil; 5.5 μg): clearly mydriatic
Change in Pupil Diameter as a function of time (rabbit eye pupil; 5.5 ug applied, in 35 min): 4 mm
mydriatic potency compared to the parent drugs (rabbit eye pupil): potent mydriatic agents

SMILES: CN1C2CC(OC(=O)C(COC(=O)c3ccc(O)cc3)c3ccccc3)CC1C1OC12 (stereo not shown) [Scopolamine p-hydroxybenzoate, Scopolamine p-Hydroxybenzoate]
solubility [3]: low
mydriatic response (in words) (rabbit eye pupil; 0.1 μg): sufficient for a response
Change in Pupil Diameter as a function of time (rabbit eye pupil; 0.1 ug applied, in 15 min): 7 mm
mydriatic potency compared to the parent drugs (rabbit eye pupil): potent mydriatic agents

Hydrolysis of Glucuronides ([2]; pH 5.0): 37 nmoles/hour/100 units
SMILES: COC(=O)Cc1ccc(O[C@@H]2O[C@H](C(=O)O)[C@@H](O)[C@H](O)[C@H]2O)cc1 [p-Hydroxyphenylacetic Acid Methyl Ester-O-β-D-Glucuronide]

Change in Pupil Diameter as a function of time (rabbit eye pupil; 600 ug applied, in 25 min): 0 mm
mydriatic response (in words) (rabbit eye pupil; [4]): No mydriatic response
Hydrolysis of Glucuronides ([2]; pH 5.0): 36 nmoles/hour/100 units
SMILES: CCN(Cc1ccncc1)C(=O)C(COC(=O)c1ccc(O[C@@H]2O[C@H](C(=O)O)[C@@H](O)[C@H](O)[C@H]2O)cc1)c1ccccc1 (stereo partly drawn) [Tropicamide p-Hydroxybenzoyl-O-β-D-Glucuronic Acid]

SMILES: CN1[C@@H]2C[C@@H](OC(=O)[C@H](CO)c3ccccc3)C[C@H]1[C@@H]1O[C@@H]12 [Scopolamine]
mydriatic response (in words) (rabbit eye pupil; 0.6 μg): nonmydriatic
Change in Pupil Diameter as a function of time (rabbit eye pupil; 0.6 ug applied, in 15 min): 0 mm
Change in Pupil Diameter as a function of time (rabbit eye pupil; 6 ug applied, in 15 min): 6 mm
Change in Pupil Diameter as a function of time (rabbit eye pupil; 60 ug applied, in 10 min): 6 mm

SMILES: CCN(Cc1ccncc1)C(=O)C(CO)c1ccccc1 (stereo not shown) [Tropicamide]
mydriatic response (in words) (rabbit eye pupil; 20 μg): weak response

Hydrolysis of Glucuronides ([2]; pH 5.0): 2.6 nmoles/hour/100 units
SMILES: COC(=O)C(CO[C@@H]1O[C@H](C(=O)O)[C@@H](O)[C@H](O)[C@H]1O)c1ccccc1 (stereo partly drawn) [Tropic acid methyl ester glucuronide, Tropic Acid Methyl Ester-O-β-D-Glucuronide]

SMILES: O=C1OC(c2ccc(O)cc2)(c2ccc(O[C@@H]3O[C@H](C(=O)O)[C@@H](O)[C@H](O)[C@H]3O)cc2)c2ccccc21 (stereo partly shown) [Phenolphthalein glucuronide, phenolphthalein glucuronide]
Hydrolysis of Glucuronides [1]: 200 nmoles/hour/100 units
Hydrolysis of Glucuronides (E. coli β-glucuronidase): 200 nmoles/hour/100 units
Hydrolysis of Glucuronides ([2]; pH 5.0): 200 nmoles/hour/100 units

SMILES: CN1C2CC(OC(=O)C(COC(=O)c3ccc(OC4OC(C(=O)O)C(O)C(O)C4O)cc3)c3ccccc3)CC1C1OC12 [Scopolamine p-Hydroxybenzoy-O-β-D-Glucuronic Acid]
Change in Pupil Diameter as a function of time (rabbit eye pupil; 11.4 ug applied, in 45 min): 0 mm
mydriatic response (in words) (rabbit eye pupil; [4]): No mydriatic response
Hydrolysis of Glucuronides ([2]; pH 5.0): 40 nmoles/hour/100 units

SMILES: CN1C2CC(OC(=O)C(COC3OC(C(=O)O)C(O)C(O)C3O)c3ccccc3)CC1C1OC12 [Scopolamine glucuronide, scopolamine O-β-D-glucuronide]
Hydrolysis of Glucuronides [1]: 25 nmoles/hour/100 units
Hydrolysis of Glucuronides (E. coli β-glucuronidase): 60 nmoles/hour/100 units
Hydrolysis by E. coli enzyme (in words) (E. coli β-glucuronidase): lower, but significant, activity
Hydrolysis of Glucuronides ([2]; pH 5.0): < 0.5 nmoles/hour/100 units
Hydrolysis by human sweat enzyme (in words) ([2]; pH 5.0): no scopolamine could be detected
Hydrolysis by human sweat enzyme (in words) ([2]; pH 6.8): no hydrolysis
